In brackets after ≈: the same amount, converted by molar mass. Where two headings read alike, the source gives them in different places.
Tests used:
[1] = biological target: M. smegmatis DprE1 (DprE1/DprE2 epimerase) (Mycolicibacterium smegmatis, UniProt A0R607); assay type: biochemical
[2] = tested on: Mtb; assay: microbe, parasite or virus in culture; assay type: cell-based, Mycobacterium tuberculosis; conditions: Mycobacterium tuberculosis, read-out: MIC (I)
[3] = in vitro; conditions: African green monkey
[4] = in vitro; conditions: human
[5] = tested on: Mtb; assay: microbe, parasite or virus in culture; assay type: cell-based, Mycobacterium tuberculosis; conditions: Mycobacterium tuberculosis, read-out: MIC (III)
[6] = tested on: Mtb; assay: microbe, parasite or virus in culture; assay type: cell-based, Mycobacterium tuberculosis; conditions: Mycobacterium tuberculosis, read-out: MIC (II)
[7] = tested on: exponentially growing virulent Mtb; assay type: cell-based, Mycobacterium tuberculosis
[8] = tested on: Mtb in J744.1 murine macrophage cells; assay: microbe, parasite or virus in culture; assay type: cell-based; conditions: Mycobacterium tuberculosis, 120 h, read-out: MIC50, intracellular CFU assay

M. smegmatis DprE1 (DprE1/DprE2 epimerase), sequence (A0R607 whole entry): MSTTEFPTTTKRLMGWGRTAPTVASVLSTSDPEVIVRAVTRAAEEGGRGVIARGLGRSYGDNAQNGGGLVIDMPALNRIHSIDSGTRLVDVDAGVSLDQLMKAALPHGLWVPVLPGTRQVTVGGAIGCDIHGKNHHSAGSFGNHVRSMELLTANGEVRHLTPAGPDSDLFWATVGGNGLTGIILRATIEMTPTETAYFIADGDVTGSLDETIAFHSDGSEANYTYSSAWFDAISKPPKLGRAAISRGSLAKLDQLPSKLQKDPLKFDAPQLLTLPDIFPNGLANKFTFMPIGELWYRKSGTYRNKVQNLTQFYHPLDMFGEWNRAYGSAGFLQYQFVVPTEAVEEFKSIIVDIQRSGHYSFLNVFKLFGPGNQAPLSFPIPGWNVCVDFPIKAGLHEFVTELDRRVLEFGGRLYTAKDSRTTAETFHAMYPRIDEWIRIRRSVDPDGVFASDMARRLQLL

C[C@H]1COC2(CCN(c3nc(=O)c4cc(C(F)(F)F)cc([N+](=O)[O-])c4s3)CC2)O1 [BTZ043]
inhibition of conversion of DPR to DPA by DprE1 [1]: potently inhibit

CCOC(=O)NC(=O)c1ccsc1NC(=O)c1nc2ccccc2s1 [Compound 1]
MIC [2]: 1 to 3 µg/mL (≈ 2.66 to 7.99 µM) | CC50 [3]: > 50 µg/mL | CC50 [4]: > 50 µg/mL | MIC [5]: > 25 µg/mL | MIC [6]: 1 to 3 µg/mL (≈ 2.66 to 7.99 µM)

CCOC(=O)NC(=O)c1ccsc1NC(=O)c1ccc2sc(C)nc2c1 [Compound 10]
MIC [2]: < 1 µg/mL | CC50 [3]: 25 to 50 µg/mL (≈ 64.2 to 128 µM) | CC50 [4]: > 50 µg/mL | MIC [6]: < 1 µg/mL

CCOC(=O)NC(=O)c1ccsc1NC(=O)c1ccnc(NC(C)=O)c1 [Compound 13]
CC50 [4]: > 50 µg/mL | MIC [6]: < 1 µg/mL

CCOC(=O)NC(=O)c1ccsc1NC(=O)c1nc2cc(Cl)ccc2s1 [Compound 52]
CC50 [4]: > 50 µg/mL | MIC [6]: < 1 µg/mL

CCOC(=O)NC(=O)c1ccsc1NC(=O)c1nc2cc(F)ccc2s1 [Compound 53]
MIC [2]: < 1 µg/mL | CC50 [3]: < 25 µg/mL | CC50 [4]: 25 to 50 µg/mL (≈ 63.5 to 127 µM) | MIC [6]: < 1 µg/mL

CCOC(=O)NC(=O)c1ccsc1NC(=O)c1ccnc(NC(=O)C(C)(C)C)c1 [Compound 60]
MIC [2]: < 1 µg/mL | CC50 [3]: > 50 µg/mL | CC50 [4]: > 50 µg/mL | MIC [5]: > 25 µg/mL | MIC [6]: < 1 µg/mL

CCOC(=O)NC(=O)c1ccsc1NC(=O)c1ccnc(NC(=O)OC)c1 [Compound 61]
MIC [2]: 1 to 3 µg/mL (≈ 2.55 to 7.65 µM) | CC50 [3]: > 50 µg/mL | CC50 [4]: 25 to 50 µg/mL (≈ 63.7 to 127 µM) | MIC [5]: 5 to 25 µg/mL (≈ 12.7 to 63.7 µM) | MIC [6]: < 1 µg/mL

CCOC(=O)NC(=O)c1ccsc1NC(=O)c1nc2ccc(Cl)cc2[nH]1 [Compound 72]
MIC [2]: 1 to 3 µg/mL (≈ 2.55 to 7.64 µM) | CC50 [3]: > 50 µg/mL | CC50 [4]: > 50 µg/mL | MIC [5]: 5 to 25 µg/mL (≈ 12.7 to 63.6 µM) | MIC [6]: > 3 µg/mL

CCOC(=O)NC(=O)c1ccsc1NC(=O)c1cn2ccccc2n1 [Compound 76]
MIC [2]: 1 to 3 µg/mL (≈ 2.79 to 8.37 µM) | CC50 [3]: > 50 µg/mL | CC50 [4]: > 50 µg/mL | MIC [5]: < 5 µg/mL | MIC [6]: > 3 µg/mL

NNC(=O)c1ccncc1 [INH, isoniazid]
drop in CFU compared with TCA1 [7]: comparable drop in CFU over the first seven days | MIC50 [8]: 0.2 µg/mL (≈ 1.46 µM)

CO[C@H]1/C=C/O[C@@]2(C)Oc3c(C)c(O)c4c(O)c(c(/C=N/N5CCN(C)CC5)c(O)c4c3C2=O)NC(=O)/C(C)=C\C=C\[C@H](C)[C@H](O)[C@@H](C)[C@@H](O)[C@@H](C)[C@H](OC(C)=O)[C@@H]1C [RIF, rifampicin]
MIC50 [8]: 2.7 µg/mL (≈ 3.28 µM)

Source: patent publication US20160194299A1 (priority 2013, published 2016)
